The values below come from article PMC5293833, “Mycobacterium tuberculosis Prolyl Oligopeptidase Induces In vitro Secretion of Proinflammatory Cytokines by Peritoneal Macrophages” (Frontiers in Microbiology, 2017).

Starred links: 1 amine or outer side, 2 acyl side, 3 side chain; linkers in the order of their positions; H or OH if unused. Residues, ends and D or L forms follow the SMILES beside them. *: point of attachment. AMC = Cc1cc(=O)oc2cc(N*)ccc12; Suc = O=C(CCC(=O)[*:2])[*:1]

Format in all cases: biochemical
The target of assay [1] is T1, prolyl oligopeptidase (POPMt) (Mycobacterium tuberculosis, UniProt O07178).
T1 construct: gene Rv0457c
T1 sequence (O07178 entry or part of it): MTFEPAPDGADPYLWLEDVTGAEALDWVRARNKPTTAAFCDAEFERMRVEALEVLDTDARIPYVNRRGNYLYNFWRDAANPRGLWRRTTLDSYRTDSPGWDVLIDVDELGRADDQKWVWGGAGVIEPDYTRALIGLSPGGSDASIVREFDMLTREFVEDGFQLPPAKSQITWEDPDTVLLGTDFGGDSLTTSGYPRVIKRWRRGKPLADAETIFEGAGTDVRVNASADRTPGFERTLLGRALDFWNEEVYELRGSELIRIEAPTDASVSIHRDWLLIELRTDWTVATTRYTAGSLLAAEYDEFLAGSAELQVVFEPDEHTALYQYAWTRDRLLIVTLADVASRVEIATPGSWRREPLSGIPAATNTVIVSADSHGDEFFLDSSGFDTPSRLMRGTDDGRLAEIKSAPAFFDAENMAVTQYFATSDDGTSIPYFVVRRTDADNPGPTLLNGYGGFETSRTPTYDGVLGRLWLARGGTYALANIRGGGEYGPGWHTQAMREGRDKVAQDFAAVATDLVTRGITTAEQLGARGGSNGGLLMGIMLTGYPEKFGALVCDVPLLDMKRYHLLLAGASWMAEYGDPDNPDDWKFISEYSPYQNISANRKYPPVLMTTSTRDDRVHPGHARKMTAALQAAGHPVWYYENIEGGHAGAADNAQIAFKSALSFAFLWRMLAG
As to the kind of experiment: fluorogenic AMC substrate assay, % inhibition at […]. Particulars: 1000 µM.

The target of assay [2] is T1, prolyl oligopeptidase (POPMt).
Assay [3] has the same target. As to the kind of experiment: fluorogenic AMC substrate assay, % inhibition at […].

As to `NCCc1ccc(S(=O)(=O)F)cc1` [AEBSF], the “Inhibition (%)” value in assay [1] was 33.

Take `Cc1cc(=O)oc2cc(NC(=O)[C@@H]3CCCN3C(=O)CNC(=O)CCC(=O)O)ccc12` [N-Suc-Gly-Pro-AMC] (Suc-Gly-Pro-{AMC}): the “Relative activity (%)” value in assay [2] is on record as 48 % relative activity.

For the compound `Cc1ccc(S(=O)(=O)N[C@@H](CCCCN)C(=O)CCl)cc1` [TLCK], 100 µM produced 35% inhibition in assay [3].

For `Cc1ccc(S(=O)(=O)N[C@@H](Cc2ccccc2)C(=O)CCl)cc1` [TPCK], the inhibition at 100 µM in assay [3] is 66%.

A word on the inhibition: it is the change of the read-out against control, counted positive when it falls. A lower inhibition goes with little suppression.
